Results reported in ChEMBL document CHEMBL5143555, “Potentiating the intracellular killing of Staphylococcus aureus by dihydroquinazoline analogues as NorA efflux pump inhibitor” (Bioorg Med Chem, 2022).
In brackets after ≈: the same amount, converted by molar mass. Activity calls are given as the source filed them. The calls are words filed in the database; no cut-off is given here.

Assays:
[1] = test system: Staphylococcus aureus; assay: Antibacterial activity against Staphylococcus aureus 1199 measured after 24 hrs by Muller Hinton broth based MTT assay; assay type: functional
[2] = test system: Staphylococcus aureus; assay: Antibacterial activity against Staphylococcus aureus K1758 measured after 24 hrs by Muller Hinton broth based MTT assay; assay type: functional
[3] = test system: Staphylococcus aureus; assay: Antibacterial activity against Staphylococcus aureus 1199B measured after 24 hrs by Muller Hinton broth based MTT assay; assay type: functional
[4] = biological target: T1, Quinolone resistance protein NorA (Staphylococcus aureus) (UniProt P0A0J7); assay: Inhibition of NorA in Staphylococcus aureus 1199B assessed as potentiation of ethidium bromide-induced antibacterial activity by measuring ethidium bromide MIC at sub MIC relative to ethidium bromide MIC alone
T1 sequence (whole entry): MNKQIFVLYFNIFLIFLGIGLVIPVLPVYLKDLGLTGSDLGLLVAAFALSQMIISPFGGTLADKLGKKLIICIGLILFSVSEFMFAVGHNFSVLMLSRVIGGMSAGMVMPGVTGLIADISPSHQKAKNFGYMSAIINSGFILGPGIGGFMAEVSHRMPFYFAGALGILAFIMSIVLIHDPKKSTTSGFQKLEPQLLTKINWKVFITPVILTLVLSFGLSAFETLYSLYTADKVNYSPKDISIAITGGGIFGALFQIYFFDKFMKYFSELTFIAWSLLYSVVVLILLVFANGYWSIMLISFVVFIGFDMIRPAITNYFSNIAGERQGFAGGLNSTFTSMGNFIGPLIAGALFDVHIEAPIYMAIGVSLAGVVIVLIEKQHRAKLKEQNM

[5] = biological target: T1, Quinolone resistance protein NorA (Staphylococcus aureus); assay: Inhibition of NorA in Staphylococcus aureus 1199B assessed as potentiation of ethidium bromide-induced antibacterial activity by measuring ethidium bromide MIC at sub MIC
[6] = biological target: T1, Quinolone resistance protein NorA (Staphylococcus aureus); assay: Inhibition of NorA in Staphylococcus aureus 1199B assessed as potentiation of ethidium bromide-induced bactericidal activity at 62.5 ug/ml measured after 24 hrs by time-kill kinetics assay; conditions: dose 62.5 µg/ml
[7] = biological target: T1, Quinolone resistance protein NorA (Staphylococcus aureus); assay: Inhibition of NorA in Staphylococcus aureus 1199B assessed as accumulation of norfloxacin at 3.9 ug/ml by measuring fluorescence intensity measured at 5 mins interval for 40 mins by fluorescence spectrophotometry; conditions: dose 3.9 µg/ml
[8] = biological target: T1, Quinolone resistance protein NorA (Staphylococcus aureus); assay: Inhibition of NorA in Staphylococcus aureus 1199B assessed as potentiation of 3.1 ug/mL norfloxacin-induced bactericidal activity by measuring log reduction in bacterial count at 3.9 ug/mL measured after 24 hrs by time-kill kinetics assay; conditions: dose 3.9 µg/ml
[9] = biological target: T1, Quinolone resistance protein NorA (Staphylococcus aureus); assay: Inhibition of NorA in Staphylococcus aureus 1199B assessed as potentiation of ethidium bromide-induced antibacterial activity by measuring fractional inhibitory concentration
[10] = Cytotoxicity against kidney epithelial cells (unknown origin) assessed as cell viability at 50 ug/mL measured after 24 hrs by alamar blue assay relative to control; assay type: toxicity, cell-based, Fetal kidney cell; conditions: at 50 µg/mL, read-out: Activity
[11] = biological target: T1, Quinolone resistance protein NorA (Staphylococcus aureus); assay: Inhibition of NorA in Staphylococcus aureus 1199B assessed as potentiation of norfloxacin-induced antibacterial activity by measuring Norfloxacin MIC at sub MIC relative to norfloxacin MIC alone
[12] = biological target: T1, Quinolone resistance protein NorA (Staphylococcus aureus); assay: Inhibition of NorA in Staphylococcus aureus 1199B assessed as accumulation of ethidium bromide at 3.9 ug/ml by measuring fluorescence intensity measured at 5 mins interval for 40 mins by fluorescence spectrophotometry; conditions: dose 3.9 µg/ml
[13] = biological target: T1, Quinolone resistance protein NorA (Staphylococcus aureus); assay: Inhibition of NorA in Staphylococcus aureus 1199B assessed as potentiation of norfloxacin-induced antibacterial activity by measuring fractional inhibitory concentration
[14] = biological target: T1, Quinolone resistance protein NorA (Staphylococcus aureus); assay: Inhibition of NorA in Staphylococcus aureus 1199B assessed as potentiation of norfloxacin-induced antibacterial activity by measuring Norfloxacin MIC at sub MIC

Row | Compound | MIC [1] | MIC [2] | MIC [3] | other results
1 | CO[C@H]1/C=C/O[C@@]2(C)Oc3c(C)c(O)c4c(O)c(c(/C=N/N5CCN(C)CC5)c(O)c4c3C2=O)NC(=O)/C(C)=C\C=C\[C@H](C)[C@H](O)[C@@H](C)[C@@H](O)[C@@H](C)[C@H](OC(C)=O)[C@@H]1C [RIFAMPIN] | 0.1 µg/mL (≈ 0.122 µM) | 0.1 µg/mL (≈ 0.122 µM) | 0.21 µg/mL (≈ 0.255 µM) | 
2 | Cc1onc(-c2ccccc2)c1C(=O)N[C@@H]1C(=O)N2[C@@H]1SC(C)(C)[C@@H]2C(=O)O [OXACILLIN] | 0.1 µg/mL (≈ 0.249 µM) | 0.1 µg/mL (≈ 0.249 µM) | 0.42 µg/mL (≈ 1.05 µM) | 
3 | CC1(C)S[C@@H]2[C@H](NC(=O)[C@H](N)c3ccc(O)cc3)C(=O)N2[C@H]1C(=O)O [AMOXICILLIN] | 0.05 µg/mL (≈ 0.137 µM) | 0.1 µg/mL (≈ 0.274 µM) | 0.42 µg/mL (≈ 1.15 µM) | 
4 | c1ccc(C2=NC(c3ccccc3)Nc3ccccc32)cc1 (configuration not stated) | 125 µg/mL (≈ 440 µM) | 250 µg/mL (≈ 879 µM) | 250 µg/mL (≈ 879 µM) | fold change (FC) [4]: 16; MIC [5]: 3.1 µg/mL; inhibition [6]: Active; Flu intensity [7]: 3960; Activity [8]: > 3 log10CFU/ml; fractional inhibitory concentration index (FICI) [9]: 0.31; viability at 24 h, 50 ug/mL [10]: 71%; fold change (FC) [11]: 16; Flu intensity [12]: 96.1; fractional inhibitory concentration index (FICI) [13]: 0.078; MIC [14]: 3.1 µg/mL
5 | CN[C@@H]1[C@H](O[C@H]2[C@H](O[C@H]3[C@H](O)[C@@H](O)[C@H](N=C(N)N)[C@@H](O)[C@@H]3N=C(N)N)O[C@@H](C)[C@]2(O)C=O)O[C@@H](CO)[C@H](O)[C@H]1O [STREPTOMYCIN] | 1.7 µg/mL (≈ 2.92 µM) | 0.4 µg/mL (≈ 0.688 µM) | 3.5 µg/mL (≈ 6.02 µM) | 
6 | GENTAMICIN | 0.21 µg/mL | 0.1 µg/mL | 1.7 µg/mL | 
7 | C=CCOc1ccc(C2N=C(c3ccccc3)c3ccccc3N2)cc1 (configuration not stated) | 125 µg/mL (≈ 367 µM) | 250 µg/mL (≈ 734 µM) | 500 µg/mL (≈ 1470 µM) | 
8 | Fc1ccccc1C1=NC(c2ccccc2)Nc2ccc(Cl)cc21 (configuration not stated) | 62.5 µg/mL (≈ 186 µM) | 250 µg/mL (≈ 742 µM) | 500 µg/mL (≈ 1480 µM) | 
9 | CC(=O)NC[C@H]1CN(c2ccc(N3CCOCC3)c(F)c2)C(=O)O1 [LINEZOLID] | 0.85 µg/mL (≈ 2.52 µM) | 0.1 µg/mL (≈ 0.296 µM) | 1.75 µg/mL (≈ 5.19 µM) | 
10 | O=C(O)c1cn(C2CC2)c2cc(N3CCNCC3)c(F)cc2c1=O [CIPROFLOXACIN] | 0.05 µg/mL (≈ 0.151 µM) | 0.05 µg/mL (≈ 0.151 µM) | 0.21 µg/mL (≈ 0.634 µM) | 
11 | c1ccc(C2=NC(c3ccco3)Nc3ccccc32)cc1 (configuration not stated) | 125 µg/mL (≈ 456 µM) | 250 µg/mL (≈ 911 µM) | 500 µg/mL (≈ 1820 µM) | 
12 | Brc1ccc(C2N=C(c3ccccc3)c3ccccc3N2)cc1 (configuration not stated) | 125 µg/mL (≈ 344 µM) | 250 µg/mL (≈ 688 µM) | > 1000 µg/mL | 
